In patent publication US20140359899A1 (priority 2011, published 2014):

How the values were obtained:
AtSWEET12 = biological target: T1, AtSWEET12 (Arabidopsis thaliana, UniProt O82587); test: Oocyte efflux assay: [14C]-sugar efflux from Xenopus oocytes expressing AtSWEET12; assay type: cell-based; details: FIG. 4D
T1 construct: Primers for the full length ORF of AtSWEET11 (AtSWT11FattB1 and AtSWT11attB2) or AtSWEET12; expressed in transfected cells; host or cells: Xenopus oocytes injected with capped cRNA from pOO2-GW

[1] = biological target: FRET sucrose sensor FLIPsuc90μΔ1V; details: detection level of the sucrose sensor; cited from earlier work

T1 sequence (O82587 whole entry): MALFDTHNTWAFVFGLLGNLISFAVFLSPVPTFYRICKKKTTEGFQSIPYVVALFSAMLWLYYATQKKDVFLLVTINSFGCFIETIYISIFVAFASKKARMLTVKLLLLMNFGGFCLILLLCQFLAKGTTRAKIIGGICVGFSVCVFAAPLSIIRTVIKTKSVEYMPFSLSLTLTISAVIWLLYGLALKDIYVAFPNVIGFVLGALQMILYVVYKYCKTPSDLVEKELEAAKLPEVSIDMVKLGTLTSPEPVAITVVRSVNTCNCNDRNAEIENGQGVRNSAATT

## OC[C@H]1O[C@H](O[C@H]2[C@H](O)[C@@H](O)C(O)O[C@@H]2CO)[C@H](O)[C@@H](O)[C@@H]1O (mixture of isomers) [Maltose, maltose]
AtSWEET12
  Maltose efflux: undetectable

## OC[C@H]1O[C@@](CO)(O[C@H]2O[C@H](CO)[C@@H](O)[C@H](O)[C@H]2O)[C@@H](O)[C@@H]1O [sucrose]
[1]
  Kd: ~90 µM
